{
  "source": "PubChem BioAssay (NCI)",
  "assay_in_all_cases": "inhibition of tumour cell growth, NCI panel, 384-well format",
  "key": {"[1]": {"system": "NCI-H522 lung"}, "[2]": {"system": "HOP-92 NSCLC"}, "[3]": {"system": "LOX IMVI melanoma"}, "[4]": {"system": "786-0 renal"}, "[5]": {"system": "KM12 colon"}, "[6]": {"system": "HCT-116 colon"}, "[7]": {"system": "A549 NSCLC"}, "[8]": {"system": "UACC-62 melanoma"}, "[9]": {"system": "OVCAR-3 ovarian"}, "[10]": {"system": "ACHN renal"}, "[11]": {"system": "NCI/ADR-RES ovarian"}, "[12]": {"system": "PC-3 prostate"}, "[13]": {"system": "SK-MEL-2 melanoma"}},
  "note": "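GI50: concentration for 50% inhibition of growth. At the TGI there is no net growth.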",
  "data": [
    {"smiles": "Cc1cc2c(C(C)C)c(O)c(O)c(C=O)c2c(O)c1-c1c(C)cc2c(C(C)C)c(O)c(O)c(C=O)c2c1O", "note": "(tested in a mixture with another compound)", "values": [
      {"measurement": "GI50", "setting": "[1]", "value": 1860, "unit": "nM"},
      {"measurement": "TGI", "setting": "[1]", "value": 4100, "unit": "nM"},
      {"measurement": "GI50", "setting": "[2]", "value": 1780, "unit": "nM"},
      {"measurement": "TGI", "setting": "[2]", "value": 4000, "unit": "nM"},
      {"measurement": "GI50", "setting": "[3]", "value": 1830, "unit": "nM"},
      {"measurement": "TGI", "setting": "[3]", "value": 3420, "unit": "nM"},
      {"measurement": "GI50", "setting": "[4]", "value": 1890, "unit": "nM"},
      {"measurement": "TGI", "setting": "[4]", "value": 3610, "unit": "nM"},
      {"measurement": "GI50", "setting": "[5]", "value": 1500, "unit": "nM"},
      {"measurement": "TGI", "setting": "[5]", "value": 3100, "unit": "nM"},
      {"measurement": "GI50", "setting": "[6]", "value": 1700, "unit": "nM"},
      {"measurement": "TGI", "setting": "[6]", "value": 3120, "unit": "nM"},
      {"measurement": "GI50", "setting": "[7]", "value": 1860, "unit": "nM"},
      {"measurement": "TGI", "setting": "[7]", "value": 4500, "unit": "nM"},
      {"measurement": "GI50", "setting": "[8]", "value": 1810, "unit": "nM"},
      {"measurement": "TGI", "setting": "[8]", "value": 3250, "unit": "nM"},
      {"measurement": "GI50", "setting": "[9]", "value": 1590, "unit": "nM"},
      {"measurement": "TGI", "setting": "[9]", "value": 3460, "unit": "nM"},
      {"measurement": "GI50", "setting": "[10]", "value": 2050, "unit": "nM"},
      {"measurement": "TGI", "setting": "[10]", "value": 4660, "unit": "nM"},
      {"measurement": "GI50", "setting": "[11]", "value": 1830, "unit": "nM"},
      {"measurement": "TGI", "setting": "[11]", "value": 3320, "unit": "nM"},
      {"measurement": "GI50", "setting": "[12]", "value": 1670, "unit": "nM"},
      {"measurement": "TGI", "setting": "[12]", "value": 3520, "unit": "nM"},
      {"measurement": "GI50", "setting": "[13]", "value": 1970, "unit": "nM"},
      {"measurement": "TGI", "setting": "[13]", "value": 3610, "unit": "nM"}
    ]}
  ]
}
